The values that follow come from ChEMBL document CHEMBL1158944, “Chemistry of Sponges, XII. A New Dihydric Phenol from the Sponge Fasciospongia sp” (J Nat Prod, 1991).

The subject of one test is Staphylococcus aureus. Description: Antimicrobial activity against Staphylococcus aureus at 100 ug/ml. The class given is functional, organism-based.
The test system of a further test is Bacillus subtilis. Description: Antimicrobial activity against Bacillus subtilis at 100 ug/ml. The class given is functional, organism-based.

Activity calls are given as the source filed them. No cut-off for these calls is given here.

As to `COc1cc(C/C=C(/C)CC/C=C(\C)CC/C=C(\C)CCC=C(C)C)cc(O)c1O`, the outcome with Staphylococcus aureus and with Bacillus subtilis was Active.
